{"source": "patent US9738591B2", "about": "“Antimicrobial compounds” (priority 2009, dated 2017)", "key": {"[1]": {"tested_on": "Pseudomonas aeruginosa NCTC 10662", "experiment": "Disk diffusion", "conditions": "P. aeruginosa NCTC 10662"}, "[2]": {"tested_on": "Salmonella enterica subsp. enterica serovar Typhimurium ATCC 13311", "experiment": "Disk diffusion", "conditions": "S. typhimurium ATCC 13311"}, "[3]": {"tested_on": "Staphylococcus aureus NCTC 6571/ATCC 9144", "experiment": "Disk diffusion", "conditions": "for Zone of Inhibition: S. aureus NCTC 6571; for Zone of inhibition, S. aureus NCTC 6571: analogues in DMSO, protocol of Example 3"}, "[4]": {"tested_on": "Staphylococcus aureus (methicillin resistant) NCTC 10442", "experiment": "Disk diffusion", "conditions": "S. aureus NCTC 10442"}, "E. coli NCTC 10418": {"tested_on": "E. coli NCTC 10418", "experiment": "Disk diffusion", "conditions": "for Zone of Inhibition: E. coli NCTC 10418; for Zone of inhibition, E. coli NCTC 10418: analogues in DMSO, protocol of Example 3"}, "[5]": {"tested_on": "Streptococcus pneumoniae ATCC 49619", "experiment": "Disk diffusion", "conditions": "S. pneumoniae ATCC 49619"}, "[6]": {"tested_on": "Staphylococcus epidermidis ATCC 12228", "experiment": "Disk diffusion", "conditions": "S. epidermidis ATCC 1228"}, "[7]": {"tested_on": "Bacillus subtilis ATCC 6633", "experiment": "Disk diffusion", "conditions": "B. subtilis ATCC 6633"}, "[8]": {"tested_on": "Listeria monocytogenes NCTC 7973", "experiment": "Disk diffusion", "conditions": "L. monocytogenes NCTC 7973"}, "C. albicans ATCC 90028": {"tested_on": "C. albicans ATCC 90028", "experiment": "Disk diffusion"}, "[9]": {"tested_on": "Enterococcus faecalis NCTC 775", "experiment": "Disk diffusion", "conditions": "E. faecalis NCTC 775"}, "[10]": {"tested_on": "Shigella flexneri NCTC 8192", "experiment": "Disk diffusion", "assay_type": "cell-based", "conditions": "S. flexneri NCTC 8192", "protocol": "Plates were incubated at 35° C."}, "[11]": {"tested_on": "Micrococcus luteus ATCC 10240", "experiment": "Disk diffusion", "conditions": "M. luteus ATCC 10240"}, "[12]": {"tested_on": "Streptococcus pyogenes NCTC 8191", "experiment": "Disk diffusion", "conditions": "S. pyogenes NCTC 8191"}, "[13]": {"tested_on": "V. cholerae non-01 clinical", "experiment": "Disk diffusion"}, "[14]": {"tested_on": "A. calcoaceticus ATCC 15308", "experiment": "Disk diffusion"}, "[15]": {"tested_on": "Escherichia coli NCTC 10538", "experiment": "Disk diffusion", "conditions": "E. coli NCTC 10538"}, "[16]": {"tested_on": "Staphylococcus xylosus ATCC 29971", "experiment": "Disk diffusion", "conditions": "S. xylosus ATCC 29971"}, "[17]": {"tested_on": "Yersinia enterocolitica clinical 26609", "experiment": "Disk diffusion", "conditions": "Y. enterocolitica clinical 26609"}, "K. pneumoniae NCTC 10896": {"tested_on": "K. pneumoniae NCTC 10896", "experiment": "Disk diffusion"}, "[18]": {"tested_on": "Citrobacter freundii NCTC 9750/ATCC 8090", "experiment": "Disk diffusion", "conditions": "C. freundii NCTC 9750"}, "[19]": {"tested_on": "Aeromonas hydrophila NCTC 8049/ATCC 7966", "experiment": "Disk diffusion", "conditions": "A. hydrophila NCTC 8049"}, "[20]": {"tested_on": "Proteus mirabilis NCTC 10975", "experiment": "Disk diffusion", "conditions": "P. mirabilis NCTC 10975"}, "[21]": {"tested_on": "Bacillus cereus ATCC 13061", "experiment": "Disk diffusion", "conditions": "B. cereus ATCC 13061"}, "[22]": {"tested_on": "Moraxella catarrhalis NCTC 3625", "experiment": "Disk diffusion", "conditions": "M. catarrhalis NCTC 3625"}, "[23]": {"tested_on": "Stenotrophomonas maltophilia ATCC 13637", "experiment": "Disk diffusion", "conditions": "S. maltophilia ATCC 13637"}, "[24]": {"tested_on": "S. typhimurium TA98, TA100 and TA1535", "experiment": "Ames Test for mutagenic activity, no metabolic activation", "conditions": "5 μg/plate, duplicate plates"}}, "note": "Several values for one entry are separate records, joined by “and”; a condition that tells them apart may be missing. Identical values can stand only once."}
{"smiles": "O=C(O)c1ccc(/C=C/c2ccc(/C=C/c3ccc(C(=O)O)cc3)c(/C=C/c3ccc(C(=O)O)cc3)c2)cc1", "note": "[TSB067]", "values": [{"measurement": "Zone of Inhibition", "setting": "[1]", "value": 0, "unit": "mm"}, {"measurement": "Zone of Inhibition", "setting": "[2]", "value": 0, "unit": "mm"}, {"measurement": "Zone of Inhibition", "setting": "[3]", "value": 14, "unit": "mm"}, {"measurement": "Zone of Inhibition", "setting": "[4]", "value": 12, "unit": "mm"}, {"measurement": "Zone of Inhibition", "setting": "E. coli NCTC 10418", "value": 6.5, "unit": "mm"}, {"measurement": "Zone of Inhibition", "setting": "[5]", "value": 16, "unit": "mm"}, {"measurement": "Zone of Inhibition", "setting": "[6]", "value": 11, "unit": "mm"}, {"measurement": "Zone of Inhibition", "setting": "[7]", "value": 0, "unit": "mm"}, {"measurement": "Zone of Inhibition", "setting": "[8]", "value": 12, "unit": "mm"}, {"measurement": "Zone of Inhibition", "setting": "C. albicans ATCC 90028", "value": 0, "unit": "mm"}, {"measurement": "Zone of Inhibition", "setting": "[9]", "value": 0, "unit": "mm"}, {"measurement": "Zone of Inhibition", "setting": "[10]", "value": 0, "unit": "mm"}, {"measurement": "Zone of Inhibition", "setting": "[11]", "value": 20, "unit": "mm"}, {"measurement": "Zone of Inhibition", "setting": "[12]", "value": 14, "unit": "mm"}, {"measurement": "Zone of Inhibition", "setting": "[13]", "value": 0, "unit": "mm"}, {"measurement": "Zone of Inhibition", "setting": "[14]", "value": 0, "unit": "mm"}, {"measurement": "Zone of Inhibition", "setting": "[15]", "value": 7.5, "unit": "mm"}, {"measurement": "Zone of Inhibition", "setting": "[16]", "value": 0, "unit": "mm"}, {"measurement": "Zone of Inhibition", "setting": "[17]", "value": 0, "unit": "mm"}, {"measurement": "Zone of Inhibition", "setting": "K. pneumoniae NCTC 10896", "value": 0, "unit": "mm"}, {"measurement": "Zone of Inhibition", "setting": "[18]", "value": 0, "unit": "mm"}, {"measurement": "Zone of Inhibition", "setting": "[19]", "value": 7, "unit": "mm"}, {"measurement": "Zone of Inhibition", "setting": "[20]", "value": 0, "unit": "mm"}, {"measurement": "Zone of Inhibition", "setting": "[21]", "value": 0, "unit": "mm"}, {"measurement": "Zone of Inhibition", "setting": "[22]", "value": 32, "unit": "mm"}, {"measurement": "Zone of Inhibition", "setting": "[23]", "value": 0, "unit": "mm"}]}
{"smiles": "O=C(O)c1ccc(CCc2cc(CCc3ccc(C(=O)O)cc3)c(CCc3ccc(C(=O)O)cc3)cc2CCc2ccc(C(=O)O)cc2)cc1", "note": "[QSB002]", "values": [{"measurement": "zones of inhibition with S aureus NCTC6571", "setting": "[3]; applied at 10 mg/ml", "value": "no zones of inhibition"}]}
{"smiles": "Cc1ccc(/C=C/c2cc(/C=C/c3ccc(C)cc3)cc(/C=C/c3ccc(C)cc3)c2)cc1", "note": "[TSB037]", "values": [{"measurement": "Zone of inhibition, S. aureus NCTC 6571", "setting": "[3]", "value": 0, "unit": "mm"}, {"measurement": "Zone of inhibition, E. coli NCTC 10418", "setting": "E. coli NCTC 10418", "value": 0, "unit": "mm"}]}
{"smiles": "O=C(O)c1ccc(/C=C/c2cc(/C=C/c3ccc(C(=O)O)cc3)c(/C=C/c3ccc(C(=O)O)cc3)cc2/C=C/c2ccc(C(=O)O)cc2)cc1", "note": "[QSB001]", "values": [{"measurement": "Zone of Inhibition", "setting": "[1]", "value": 0, "unit": "mm"}, {"measurement": "Zone of Inhibition", "setting": "[2]", "value": 8.5, "unit": "mm"}, {"measurement": "Zone of Inhibition", "setting": "[3]", "value": 8.5, "unit": "mm"}, {"measurement": "Zone of Inhibition", "setting": "[4]", "value": 0, "unit": "mm"}, {"measurement": "Zone of Inhibition", "setting": "E. coli NCTC 10418", "value": 7, "unit": "mm"}, {"measurement": "Zone of Inhibition", "setting": "[5]", "value": 9, "unit": "mm"}, {"measurement": "Zone of Inhibition", "setting": "[6]", "value": 0, "unit": "mm"}, {"measurement": "Zone of Inhibition", "setting": "[7]", "value": 0, "unit": "mm"}, {"measurement": "Zone of Inhibition", "setting": "[8]", "value": 0, "unit": "mm"}, {"measurement": "Zone of Inhibition", "setting": "C. albicans ATCC 90028", "value": 0, "unit": "mm"}, {"measurement": "Zone of Inhibition", "setting": "[9]", "value": 0, "unit": "mm"}, {"measurement": "Zone of Inhibition", "setting": "[10]", "value": 0, "unit": "mm"}, {"measurement": "Zone of Inhibition", "setting": "[11]", "value": 0, "unit": "mm"}, {"measurement": "Zone of Inhibition", "setting": "[12]", "value": 8, "unit": "mm"}, {"measurement": "Zone of Inhibition", "setting": "[13]", "value": 8, "unit": "mm"}, {"measurement": "Zone of Inhibition", "setting": "[14]", "value": 0, "unit": "mm"}, {"measurement": "Zone of Inhibition", "setting": "[15]", "value": 7.5, "unit": "mm"}, {"measurement": "Zone of Inhibition", "setting": "[16]", "value": 0, "unit": "mm"}, {"measurement": "Zone of Inhibition", "setting": "[17]", "value": 7.5, "unit": "mm"}, {"measurement": "Zone of Inhibition", "setting": "K. pneumoniae NCTC 10896", "value": 8, "unit": "mm"}, {"measurement": "Zone of Inhibition", "setting": "[18]", "value": 8.5, "unit": "mm"}, {"measurement": "Zone of Inhibition", "setting": "[19]", "value": 7, "unit": "mm"}, {"measurement": "Zone of Inhibition", "setting": "[20]", "value": 0, "unit": "mm"}, {"measurement": "Zone of Inhibition", "setting": "[21]", "value": 0, "unit": "mm"}, {"measurement": "Zone of Inhibition", "setting": "[22]", "value": 18, "unit": "mm"}, {"measurement": "Zone of Inhibition", "setting": "[23]", "value": 8, "unit": "mm"}]}
{"smiles": "C(=C\\c1cc(/C=C/c2ccc(-c3nnn[nH]3)cc2)cc(/C=C/c2ccc(-c3nnn[nH]3)cc2)c1)/c1ccc(-c2nnn[nH]2)cc1", "note": "[TSB065]", "values": [{"measurement": "Zone of inhibition, S. aureus NCTC 6571", "setting": "[3]", "value": 14, "unit": "mm"}, {"measurement": "Zone of inhibition, E. coli NCTC 10418", "setting": "E. coli NCTC 10418", "value": 0, "unit": "mm"}]}
{"smiles": "COc1ccc(/C=C/c2cc(/C=C/c3ccc(OC)cc3)cc(/C=C/c3ccc(OC)cc3)c2)cc1", "note": "[TSB019]", "values": [{"measurement": "Zone of inhibition, S. aureus NCTC 6571", "setting": "[3]", "value": 0, "unit": "mm"}, {"measurement": "Zone of inhibition, E. coli NCTC 10418", "setting": "E. coli NCTC 10418", "value": 0, "unit": "mm"}]}
{"smiles": "CC(C)Oc1ccc(/C=C/c2cc(/C=C/c3ccc(OC(C)C)c(OC(C)C)c3)cc(/C=C/c3ccc(OC(C)C)c(OC(C)C)c3)c2)cc1OC(C)C", "note": "[TSB041]", "values": [{"measurement": "Zone of inhibition, S. aureus NCTC 6571", "setting": "[3]", "value": 0, "unit": "mm"}, {"measurement": "Zone of inhibition, E. coli NCTC 10418", "setting": "E. coli NCTC 10418", "value": 0, "unit": "mm"}]}
{"smiles": "CCCCOC(=O)/C=C/c1ccc(-c2cc(-c3ccc(/C=C/C(=O)OCCCC)cc3)cc(-c3ccc(/C=C/C(=O)OCCCC)cc3)c2)cc1", "note": "[TCB003]", "values": [{"measurement": "Zone of inhibition, S. aureus NCTC 6571", "setting": "[3]", "value": 0, "unit": "mm"}]}
{"smiles": "O=C(O)/C=C/c1cc(/C=C/C(=O)O)cc(/C=C/C(=O)O)c1", "note": "[TAB001]", "values": [{"measurement": "Zone of inhibition, S. aureus NCTC 6571", "setting": "[3]", "value": 0, "unit": "mm"}]}
{"smiles": "CC(=O)Oc1ccc(/C=C/c2cc(/C=C/c3ccc(OC(C)=O)cc3)cc(/C=C/c3ccc(OC(C)=O)cc3)c2)cc1", "note": "[TSB023]", "values": [{"measurement": "Zone of inhibition, S. aureus NCTC 6571", "setting": "[3]", "value": 0, "unit": "mm"}, {"measurement": "Zone of inhibition, E. coli NCTC 10418", "setting": "E. coli NCTC 10418", "value": 0, "unit": "mm"}]}
{"smiles": "[N-]=[N+]=[N-]", "note": "[sodium azide, reference compound]", "values": [{"measurement": "Number of colonies, Positive Control", "setting": "[24]; TA100, negative control 113, 96", "value": "350 and 360"}, {"measurement": "Number of colonies, Positive Control", "setting": "[24]; TA1535, negative control 28, 29", "value": 600}]}
